# Laboratory results as given in article PMC6917776, “Discovery of a chemical probe for PRDM9” (Nature Communications, 2019).
# Molecular target: T1, PRDM9 (amino acids: 195–415) (Homo sapiens, UniProt Q9NQV7)
# T1 construct: PRDM9 (amino acids: 195–415)
# T1 sequence (Q9NQV7 195-415): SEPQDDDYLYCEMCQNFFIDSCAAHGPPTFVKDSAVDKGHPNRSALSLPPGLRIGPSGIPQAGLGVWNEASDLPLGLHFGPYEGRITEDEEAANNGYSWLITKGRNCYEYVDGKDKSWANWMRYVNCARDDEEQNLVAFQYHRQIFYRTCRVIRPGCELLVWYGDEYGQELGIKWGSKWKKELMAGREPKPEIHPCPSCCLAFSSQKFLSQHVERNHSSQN
# Assay: PRDM9 methyltransferase activity assay (3H-SAM scintillation proximity assay)
# Assay type: biochemical
# Conditions: PRDM9, Exp1, Exp2
# Protocol: Methyltransferase activity assays for PRDM9 (amino acids: 195–415) were performed by monitoring the incorporation of tritium-labeled methyl group from ^3H-SAM to H3 (1–25) peptide using scintillation proximity assay (SPA). The enzymatic reactions were performed at 23 °C with 30 min incubation in 20 mM Tris-HCl (pH 7.5), 5 mM DTT, 0.01% Triton X-100 and 1% DMSO containing 71 μM of SAM (5 μM of ^3H-SAM), 4 μM of biotinylated H3 (1–25) peptide and 5 nM of PRDM9. For PRDM7, reactions were performed at 23 °C with 90 min incubation in 20 mM BTP pH 9.0, 5 mM DTT, 0.01% Triton X-100 and 1% DMSO containing 900 μM of SAM (5 μM of ^3H-SAM), 4 μM of biotinylated H3 (1–25) peptide and 100 nM of enzyme. […] To stop the reactions, 10 μL of 7.5 M guanidine hydrochloride was added to 10 μL of reaction mixture, followed by 60 μL of buffer (20 mM Tris, pH 8.0), mixed, and transferred to a 384-well streptavidin coated Flash-plate. After mixing, the mixtures in Flash-plate were incubated for 2 h, and the CPM counts were measured using TopCount plate reader. All enzymatic reactions were performed in triplicate, and IC50 values were determined by fitting the data to Four Parameter Logistic equation using the GraphPad Prism software.
smiles,measurement,setting,value
COc1cc(OC)cc(-c2noc(N3CCN(C)C4(CCN(c5ccccc5)CC4)C3)n2)c1 [MRK-740 -NC],activity at 1 µM,1µM compound,97%
same,Activity %,"1µM compound, 1 µM",90%
same,activity at 10 µM,10µM compound,96%
same,Activity %,"10µM compound, 10 µM",93%
